Measured values taken from patent US12031137B2, “Compositions comprising SASP modulators and senescence attenuators and uses thereof for modulating cellular senescence” (RSEM, LIMITED PARTNERSHIP, priority 2016, dated 2024).

Columns and labels:
[1] = system: mouse model of oxygen-induced retinopathy (OIR); test: SA-β-gal staining of retinas in oxygen-induced retinopathy (OIR) after intravitreal injection; format: in vivo; settings: single intravitreal injection at P12, vs vehicle
From the text: (§1) O2-induced retinopathy. Mouse pups from different strains (C57Bl/6 WT, LyzM-Cre, LysM-Cre/IRE1^fl/fl, LysM-Cre/IRE1^+/+, IRE1^fl/fl and LysM-Cre/ROSA26EYFP^fl/fl), and their fostering mothers (CD1, Charles River) were exposed to 75% 02 from postnatal day 7 (P7) to day 12 and returned to room air. This model serves as a proxy to human ocular neovascular diseases such as ROP and diabetic retinopathy characterized by a late phase of destructive pathological angiogenesis (72, 73). Upon return to room air, hypoxia-driven neovascularization (NV) develops from P14 onwards (27). We enucleated eyes at different time points and dissected the retinas for mRNA, protein assays or flatmounting.
Senescence-associated β-galactosidase (SA-β-gal) assay. Senescence-associated β-galactosidase assays were carried out as described previously (57, 75)
Quantification of SA-β-gal in vivo. Senescence-associated β-galactosidase staining in flatmount retinas or sagittal eye sections were analyzed using Image J software as described in FIG. 14.
(§2) Intravitreal injections. P2, P10 or P12 C57BL/6 pups were anesthetized with 3.0% isoflurane and injected in the vitreous chamber with 0.5 μL of lentivirus (see “Lentivirus production”), recombinant SEMA3A (100 ng/μL), metformin (10 μg/μL) or Aflibercept (10 μg/uL) using a 10-μL Hamilton syringe fitted with a […] glass capillary tip. Approximately 254±11.0 ng/μL of lentivirus Sh_GFP and 323.3±15.3 ng/μL containing Sh_Sema3a, Lv.Cre (15.0 ng/mL), Lv.GFP (15.0 ng/mL) was injected. Virus titers were assessed with the p24 ELISA kit (ZeptoMetrix). The titers of the lentiviruses used were (in ng p24) LV.Sh_RNA IRE1α (8.52 ng/mL), and LV.Sh_RNA.GFP (8.47 ng/mL).

[2] = system: mouse model of oxygen-induced retinopathy (OIR); test: Avascular area and pre-retinal neovascularization in OIR flatmount retinas; format: in vivo
[3] = system: mouse model of oxygen-induced retinopathy (OIR); test: Immunoblot and RT-qPCR of OIR retinas after intravitreal injection; format: in vivo; settings: intravitreal injection at P12, P14 OIR retinas
From the text: as §1
(§3) Semi-quantitative and Real-time PCR analysis. We isolated RNA using the GenElute™ Mammalian Total RNA Miniprep Kit (Sigma) and performed a digestion with DNase I to prevent amplification of genomic DNA. We reversed transcribed the RNA using M-MLV reverse transcriptase and analyzed gene expression using SybrGreen™ in an ABI Biosystems Real-Time PCR machine. β-actin was used as a reference gene. […] We investigated the splicing of XBP-1 by incubating the XBP-1 semi-quantitative PCR product with 0.4 U/μL of PstI enzyme for 5 hrs at 37° C. followed by separation on 2.5% agarose gel.
as §2
(§4) Western blotting. We enucleated eyes at varying time points and rapidly dissected and homogenized retinas for assessment of retinal protein levels. Protein concentration from retinal homogenate and cell lysates were assessed by BCA assay (Sigma), and then 30 μg of protein analyzed for each condition by standard SDS-PAGE technique.

SEMA3A-FC = test: Sema 3A binding assay on plate-coated purified traps (saturation curves, KD); settings: for Binding to SEMA3A: Table 2, Yes/No
Description: (§5) Sema 3A and AP-VEGF165 binding assays. Saturation curves for the determinations of KD of binding to SEMA 3A or VEGF165 were obtained as follow. Wells of high protein binding 96 well plates (Maxisorp, Nunc) were coated with purified traps diluted in PBS and blocked afterward with binding buffer (PBS containing 2% casein and 0.05% Tween 20). The SEMA3A-FC (R&D systems) or AP-VEGF165 ligands were diluted in binding buffer over an extensive range of concentrations and added to wells. Following an overnight incubation, wells were washed with PBS containing 0.05% tween. Bound SEMA3a-FC was detected using an HRP-linked anti-Human IgG (Biorad) and ECL substrate (Pierce). Alternatively, bound AP-VEGF165 was detected using CPD star substrate (Roche). The Chemiluminescent signal was acquired on a TECAN reader. Dissociation constant (KD) were determined by non-linear curve fitting using the Graph Pad prism software.
(§6) The relative affinity of traps of the present invention to SEMA3A and VEGF has been assessed. Traps were prepared as described in Example 8.

human VEGF165 = target: T1, human VEGF165 (Homo sapiens, UniProt P15692); test: AP-VEGF165 binding assay on plate-coated purified traps (saturation curves, KD); settings: AP-VEGF165 ligand; for Kd: read-out: VEGF165 binding (dissociation constant)
T1 construct: made in house; host or cells: HEK293T
T1 sequence (P15692 27-191 isoform P15692-4): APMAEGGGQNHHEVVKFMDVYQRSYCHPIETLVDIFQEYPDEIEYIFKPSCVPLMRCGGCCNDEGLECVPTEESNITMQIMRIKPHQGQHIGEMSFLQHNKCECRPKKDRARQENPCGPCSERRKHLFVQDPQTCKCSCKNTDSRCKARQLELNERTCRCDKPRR
Description: Production of AP-VEGF165. the coding sequence of the human VEGF165 variant 1 (NM_001025366) was sub-cloned in the pAPtag5 vector (GenHunter), in-frame with an Alkaline Phosphatase domain (AP-VEGF165). HEK293T cells were transfected with the AP-VEGF165 construct using a polyethylenimine (PEI) transfection method. Following the overnight transfection step, cells were cultured for an additional 60 hr in serum free media (In vitrogen). The cell media were collected and concentrated on a PES device (Pierce). The concentrated AP-VEGF165 ligand was analysed on PAGE-SDS and quantified using SimplyBlue safe stain (Life technologies).
as §5, §6

[4] = target: T2, IRE1α's endoribonuclease activity (Mus musculus, UniProt Q9EQY0); test: SEMA3A-driven senescence in J774 cells with IRE1α RNase inhibitor; format: cell-based
T2 construct: endogenous in cells; host or cells: J774 (J774A.1) mouse macrophage-like cells
Description: FIG. 7C: Representative confocal immunofluorescence staining of γH2AX and DAPI of J774 macrophages stimulated with SEMA3A (100 ng/mL) or vehicle for 7 days (Scale bars are 100 μm). Higher magnification views of the outlined areas are shown (Scale bars are 50 μm). Immunoblots (FIG. 7D) for the XBP1(s) (spliced isoform) and PCR (FIG. 7E) for XBP1(s) and unspliced XBP1 (u) in J774 cell lysates treated with vehicle, S3A (100 ng/ml) and/or 4μ8c (1 ng/ml) at day 7 post-treatment. FIG. 7F: RT-qPCR for levels of Pai1, II6, II1β, Tgf-β1, Tp53, Ire1α and Tnfα in J774 stimulated with SEMA3A alone or with 4μ8c. β-actin was used as a reference gene. ***P<0.0001, *P<0.005. Scale bars: 100 μm for C & G. High mag C is 50 μm. Data are presented as mean±SEM;
To determine whether SEMA3A-driven senescence was occurring through IRE1α's kinase or RNAse activity, the selective cell-permeable coumarin o-hydroxyaldehyde pharmacological inhibitor of IRE1α's endoribonuclease activity, 4μ8c, was used. Exposure to 4μ8c (FIG. 7D) prevented SEMA3A-induced growth arrest and abrogated SEMA3A-induced senescence (data not shown). […] Ultimately, pharmacological inhibition of the endoribonuclease activity of IRE1α inhibited production of specific senescence-associated genes Vegf-a, Tgf-β1, II-1β, II-6, Pai-1, Tp53 while there is no effect on Tnf-α or IRE1α itself (FIG. 7F).
as §3, §4

[5] = intravitreal injection at P12 of OIR
[6] = J774 stimulated with SEMA3A alone or with 4μ8c
[7] = traps coated on plate, overnight incubation

T2 sequence (Q9EQY0 21-977): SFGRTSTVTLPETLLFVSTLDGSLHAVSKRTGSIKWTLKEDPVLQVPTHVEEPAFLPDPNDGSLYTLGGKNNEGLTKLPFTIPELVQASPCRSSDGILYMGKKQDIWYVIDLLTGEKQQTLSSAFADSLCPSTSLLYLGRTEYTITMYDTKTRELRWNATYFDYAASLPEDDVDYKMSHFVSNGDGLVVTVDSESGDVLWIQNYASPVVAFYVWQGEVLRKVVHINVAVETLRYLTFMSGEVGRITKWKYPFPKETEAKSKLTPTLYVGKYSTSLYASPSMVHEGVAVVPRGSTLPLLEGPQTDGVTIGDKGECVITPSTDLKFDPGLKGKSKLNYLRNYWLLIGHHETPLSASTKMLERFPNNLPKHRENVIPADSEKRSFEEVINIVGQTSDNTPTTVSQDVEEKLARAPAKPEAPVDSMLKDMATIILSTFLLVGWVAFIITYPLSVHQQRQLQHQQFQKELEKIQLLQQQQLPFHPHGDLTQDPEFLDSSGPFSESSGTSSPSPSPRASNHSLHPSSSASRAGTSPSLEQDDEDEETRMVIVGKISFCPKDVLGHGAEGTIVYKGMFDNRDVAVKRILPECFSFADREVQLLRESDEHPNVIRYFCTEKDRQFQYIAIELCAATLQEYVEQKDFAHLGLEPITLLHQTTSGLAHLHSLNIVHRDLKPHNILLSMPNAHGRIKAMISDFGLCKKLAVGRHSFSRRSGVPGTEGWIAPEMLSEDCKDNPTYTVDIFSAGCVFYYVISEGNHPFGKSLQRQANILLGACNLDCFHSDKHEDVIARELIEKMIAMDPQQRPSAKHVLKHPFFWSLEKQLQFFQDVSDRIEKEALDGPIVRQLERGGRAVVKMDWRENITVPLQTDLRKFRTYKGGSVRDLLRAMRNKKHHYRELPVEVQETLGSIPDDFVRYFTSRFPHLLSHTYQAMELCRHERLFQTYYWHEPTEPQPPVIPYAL

Molecule	Binding to SEMA3A (SEMA3A-FC)	Kd (human VEGF165) [nM]	SEMA 3A-FC binding (dissociation constant) (SEMA3A-FC; [7])	VEGF165 binding (dissociation constant) (human VEGF165)	SA-β-gal staining at P17 OIR (cellular senescence) [1]	also measured
Aflibercept: recombinant fusion protein made-up of the extracellular domains of human VEGF receptors 1 and 2 and an Fc portion					did not significantly influence	SA-β-gal staining at P14 OIR [1]: did not significantly influence; pathological neovascularization at P17 OIR ([2]; intravitreal injection at P12, vs vehicle): marked decrease; rates of vascular regeneration at P14 [2, 5]: does not modulate; rates of vascular regeneration at P17 [2, 5]: does not modulate; drivers of senescence (Cdkn2a, Tp53, Il1β, Tgf-β1, Sema3a RT-qPCR) [3]: does not modulate
Cc1cc(=O)oc2c(C=O)c(O)ccc12 [Trap 4μ8c]						SEMA3A-mediated splicing and activation of XBP1 ([4]; J774, S3A 100 ng/ml, 4μ8c 1 ng/ml, day 7): prevented; SEMA3A-induced growth arrest ([4]; J774 cells, data not shown): prevented; SEMA3A-induced senescence ([4]; J774 cells, data not shown): abrogated; Tnf-α or IRE1α expression (RT-qPCR) [4, 6]: no effect; production of senescence-associated genes Vegf-a, Tgf-β1, Il-1β, Il-6, Pai-1, Tp53 (RT-qPCR) [4, 6]: inhibited
Trap M: NRP1 trap a1a2-b1, aa about 22-424; SEQ ID NOs 81/82 (protein) FRNDKCGDTIKIESPGYLTSPGYPHSYHPSEKCEWLIQAPDPYQRIMINFNPHFDLEDRDCKYDYVEVFDGENENGHFRGKFCGKIAPPPVVSSGPFLFIKFVSDYETHGAGFSIRYELFKRGPECSQNYTTPSGVIKSPGFPEKYPNSLECTYIVFAPKMSEIILEFESFDLEPDSNPPGGMFCRYDRLEIWDGFPDVGPHIGRYCGQKTPGRIRSSSGILSMVFYTDSAIAKEGFSANYSVLQSSVSEDFKCMEALGMESGEIHSDQITASSQYSTNWSAERSRLNYPENGWTPGEDSYREWIQVDLGLLRFVTAVGTQGAISKETKKKYYVKTYKIDVSSNGEDWITIKEGNKPVLFQGNTNPTDVVVAVFPKPLITRFVRIKPATWETGISMRFEVYGCRSGSKENLYFQG	Yes	20.1			significant attenuation	kd for SEMA3A relative to VEGF (SEMA3A-FC; see Table 6): about 20 ×

The next lines start with results.

Binding to SEMA3A (SEMA3A-FC)	Kd (human VEGF165) [nM]	SEMA 3A-FC binding (dissociation constant) (SEMA3A-FC; [7])	VEGF165 binding (dissociation constant) (human VEGF165)	Molecule	SA-β-gal staining at P17 OIR (cellular senescence) [1]	also measured
Yes	6.75			Trap G: NRP1 trap a1a2-b1b2-c, aa about 22-856; SEQ ID NOs 67/68	significant attenuation	preference for SEMA3A over VEGF binding (SEMA3A-FC; in words): much less important; Kd (SEMA3A-FC; traps coated on plate, overnight incubation, read-out: SEMA 3A-FC binding (dissociation constant)): 0.8 nM
No		No binding	No binding	Trap AE: NRP1 trap a1a2b1b2, aa about 22-560, D320K; SEQ ID NOs 53/54 (protein) MERGLPLLCAVLALVLAPAGAFRNDKCGDTIKIESPGYLTSPGYPHSYHPSEKCEWLIQAPDPYQRIMINFNPHFDLEDRDCKYDYVEVFDGENENGHFRGKFCGKIAPPPVVSSGPFLFIKFVSDYETHGAGFSIRYELFKRGPECSQNYTTPSGVIKSPGFPEKYPNSLECTYIVFAPKMSEIILEFESFDLEPDSNPPGGMFCRYDRLEIWDGFPDVGPHIGRYCGQKTPGRIRSSSGILSMVFYTDSAIAKEGFSANYSVLQSSVSEDFKCMEALGMESGEIHSDQITASSQYSTNWSAERSRLNYPENGWTPGEKSYREWIQVDLGLLRFVTAVGTQGAISKETKKKYYVKTYKIDVSSNGEDWITIKEGNKPVLFQGNTNPTDVVVAVFPKPLITRFVRIKPATWETGISMRFEVYGCKITDYPCSGMLGMVSGLISDSQITSSNQGDRNWMPENIRLVTSRSGWALPPAPHSYINEWLQIDLGEEKIVRGIIIQGGKHRENKVFMRKFKIGYSNNGSDWKMIMDDSKRKAKSFEGNNNYDTPELRTFPALSTRFIRIYPERATHGGLGLRMELLGCRSGSKENLYFQG		
No		No binding	No binding	Trap AD: NRP1 trap a1a2b1, aa about 22-424 and 561-583, D320K; SEQ ID NOs 51/52 (protein) MERGLPLLCAVLALVLAPAGAFRNDKCGDTIKIESPGYLTSPGYPHSYHPSEKCEWLIQAPDPYQRIMINFNPHFDLEDRDCKYDYVEVFDGENENGHFRGKFCGKIAPPPVVSSGPFLFIKFVSDYETHGAGFSIRYELFKRGPECSQNYTTPSGVIKSPGFPEKYPNSLECTYIVFAPKMSEIILEFESFDLEPDSNPPGGMFCRYDRLEIWDGFPDVGPHIGRYCGQKTPGRIRSSSGILSMVFYTDSAIAKEGFSANYSVLQSSVSEDFKCMEALGMESGEIHSDQITASSQYSTNWSAERSRLNYPENGWTPGEKSYREWIQVDLGLLRFVTAVGTQGAISKETKKKYYVKTYKIDVSSNGEDWITIKEGNKPVLFQGNTNPTDVVVAVFPKPLITRFVRIKPATWETGISMRFEVYGCRSGSKENLYFQG		
